Consider four compounds from US20220064604A1, “SYSTEMIC SCLEROSIS DISEASE MODEL AND USE THEREOF” (YiPSCELL Inc., priority 2018, published 2022).

Experiment [1] has as its system fibroblasts derived from the induced pluripotent stem cells. Kind of experiment: Cell proliferation of iPSC-derived fibroblasts, Cell Counting Kit-8 (FDA-approved drug screening). It is filed as cell-based, human. The settings on record: absorbance at 450 nm. The protocol:
For cell proliferation, absorbance was measured at 450 nm by using the Cell Counting Kit-8 (Dojindo).
The plated cells were treated with about 800 FDA-approved drugs to screen for drugs that reduce the proliferation (FIG. 6A). For cell proliferation, absorbance was measured at 450 nm by using the Cell Counting Kit-8 (Dojindo) (FIG. 6B).

A further experiment deals with total collagen in iPSC-F. Put plainly: Total collagen expression, hydroxyproline assay, in iPSC-derived fibroblasts. Particulars: for expression of the total collagen: 5 μM, SSc patient iPSC-derived fibroblasts, vs untreated. In kind it is cell-based, human. The protocol:
(§1) The cells or cell culture media were harvested, mixed with hydrochloric acid at a ratio of 1:1, and cultured at 120° C. for 3 hours. After culture, 5 mg of activated charcoal was added, followed by centrifugation at 13,000×g for 5 minutes to separate only the supernatant. The harvested supernatant was transferred to a 96-well plate and dried completely at 60° C. The Chloramine T/Oxidation Buffer mixture was added to the well, and it was cultured for 5 minutes at room temperature. After adding the diluted DMAB Reagent and incubating at 60° C. for 90 minutes, absorbance at 560 nm was measured.
as §1, with “For collagen expression, the hydroxyproline assay kit (Sigma) was used. The cells” for “The cells”, “1:1, and incubated at 120°” for “1:1, and cultured at 120°”, “hours. After incubation, 5 mg” for “hours. After culture, 5 mg”, “it was incubated for 5” for “it was cultured for 5”
For collagen expression, the hydroxyproline assay kit (Sigma) was used. The cells or cell culture media were harvested, mixed with hydrochloric acid at a ratio of 1:1, and incubated at 120° C. for 3 hours. After incubation, 5 mg of activated charcoal was added, followed by centrifugation at 13,000×g for 5 minutes to separate only the supernatant. […] After adding the diluted DMAB Reagent and incubating at 60° C. for 90 minutes, absorbance at 560 nm was measured.
After 1 day, pirfenidone and nintedanib, which are drugs approved as anti-fibrotic drugs, were treated at a concentration of 5 μM. Collagen expression was measured using the hydroxyproline assay kit (Sigma). […] After adding the diluted DMAB Reagent and incubating at 60° C. for 90 minutes, absorbance was measured at 560 nm to measure the total amount of collagen.

The test system of the next experiment is ACTA2 and COL1A1. Kind of experiment: Fibrosis marker gene expression (qRT-PCR) in SSc iPSC-derived fibroblasts. The settings on record: 5 μM; SSc patient iPSC-derived fibroblasts; vs untreated. In kind it is cell-based, human. The procedure:
In order to verify the fibrosis model of the fibroblasts derived from the induced pluripotent stem cells of patients with systemic sclerosis formed in Example 3 above, 2.5×10^5 fibroblasts were plated on a 6-well plate, and maintained and expanded for 1 day. One day later, pirfenidone and nintedanib were treated at a concentration of 5 μM. The total RNA was extracted using Trizol, and cDNA was synthesized using the Revert Aid™ First Strand cDNA Synthesis kit. The qRT-PCR was performed on the synthesized cDNA using LightCycle 480 SYBR Green. The primers used are presented in [Table 3]. All of the experiments were repeated 3 times, and the threshold of the average cycle was used to calculate gene expression for averaging GAPDH as an internal control.
(In general: Quantitative PCR measures a nucleic acid by following its amplification.)

The subject of the next experiment is α-SMA. Put plainly: α-SMA expression by western blot in iPSC-derived fibroblasts. In kind it is cell-based, human. The protocol: In order to verify the antifibrotic effect of dactinomycin and raloxifene, which are the drugs selected through the above experiment, 1×10^6 fibroblasts were plated on a 100 mm culture dish, treated with the target drugs, and maintained and expanded. The protein was extracted using the RIPA buffer (Sigma) to analyze the expression of fibrosis factors, and the protein concentration was quantified by the Bradford assay. The same concentration of the protein was loaded on 10% SDS-PAGE, and the protein was transferred to polyvinylidene difluoride membranes. […] After washing with PBS containing 0.1% Tween-20, the peroxidase-linked IgG secondary antibody was incubated, and protein expression was measured using the ECL kit.
In order to confirm the reduction effect of the expression of the fibrosis factors of raloxifene, which is the drug selected in Example 6, raloxifene was treated by concentration, and the expression of α-SMA was confirmed. […] The protein was extracted using the RIPA buffer (Sigma) to analyze the expression of fibrosis factors, and the protein concentration was quantified by the Bradford assay. […] After washing with PBS containing 0.1% Tween-20, the peroxidase-linked IgG secondary antibody was incubated, and protein expression was measured using the ECL kit.

In a further experiment the test system is iPSC-F. Put plainly: Wound healing assay in iPSC-F with TGF-b induced fibrosis. It is filed as cell-based, human. The procedure:
The fibroblasts were plated on a 6-well plate and maintained and expanded. When the cells filled the plate, the plate was scratched, and fibrosis was induced by TGF-b and it was treated with the drug raloxifene.

Another experiment concerns 3D fibroblast layer. Put plainly: Thickness of 3D fibroblast layer with TGF-b induced fibrosis. It is filed as cell-based, human. The text has this: A 3D fibroblast layer was produced using the fibroblasts formed in Example 3 above. 2×10^5 fibroblasts after 28 days of differentiation were harvested and mixed with collagen 1 and plated on a 6-well-sized Transwell plate. It was replaced once every 2 days with Fibroblast Differentiation Culture Medium 1 for 5 days (FIG. 5F).
In order to confirm the effect of reducing the skin thickness by raloxifene, which is the drug selected in Example 6 above, fibrosis was induced in the 3D fibroblast layer with TGF-b, and it was treated with the drug raloxifene.

Experiment [2] concerns COL1A1, COL3A1, and ACTA2. Kind of experiment: Fibrosis factor gene expression (qRT-PCR) in skin tissue of bleomycin model. Particulars: subcutaneous for 21 days. It is filed as in vivo, mouse. The protocol:
(§2) A systemic sclerosis model was established by dissolving Bleocin (Dong-A ST, 15 mg) in PBS and injecting it daily into the nape of mice. Raloxifene and bazedoxifene were injected subcutaneously for 21 days from 3 days after the injection of Bleocin (FIG. 8A).
ECM gene expression was confirmed to verify the antifibrotic efficacy of raloxifene in the bleomycin model established in Example 8-1 above. After harvesting the skin tissue, the total RNA was extracted using Trizol, and cDNA was synthesized using the Revert Aid™ First Strand cDNA Synthesis kit. The qRT-PCR was performed on the synthesized cDNA using LightCycle 480 SYBR Green. The primers used are presented in [Table 4]. All of the experiments were repeated three times, and the threshold of the average cycle was used to calculate gene expression for averaging GAPDH as an internal control.

In experiment [3] the test system is bleomycin mouse model. Put plainly: Thickness of skin tissue in bleomycin model (histology). It is filed as in vivo. The procedure:
as §2
In order to verify the antifibrotic efficacy of raloxifene in the bleomycin model established in Example 8-1 above, the skin tissue was harvested and paraffin blocks were prepared. The harvested skin tissue was fixed in 4% formaldehyde. The tissue was maintained in the running water for a day to remove the remaining fixative. Dehydration was carried out sequentially while increasing the concentration of an ethanol solution. After dehydration, a transparent process was performed with xylene, followed by paraffin penetration. The next day, the tissue was fixed to a paraffin block, and a tissue section was obtained using a microtome. The slide was dried at 60° C. for 1 hour. After the slide was deparaffinized with xylene, it was rehydrated while decreasing the concentration of the ethanol solution and washed with tap water, and staining was performed.
For hematoxylin and eosin (H&E) staining, sections were incubated in the Harris hematoxylin solution for 10 minutes. The slide was washed, decolorized in an ethanol solution containing 1% HCl, and then neutralized in 0.2% ammonia water. […]

The test system of experiment [4] is bleomycin mouse model. Kind of experiment: Pulmonary fibrosis in bleomycin model (Masson Trichrome staining). In kind it is in vivo.
Protocol: A systemic sclerosis model was established by dissolving Bleocin (Dong-A ST, 15 mg) in PBS and injecting it daily into the nape of mice. Raloxifene and bazedoxifene were injected subcutaneously for 21 days from 3 days after the injection of Bleocin (FIG. 8A). […] For Masson Trichrome staining, the slide was mordated overnight in the Bouin solution. After washing the slide, nuclei were stained for 10 minutes with Weigert Iron Hematoxylin. The cytoplasm was stained for 5 minutes with Biebrich scarlet-acid fuchsin. It was decolorized for 10 minutes with a solution in which phosphotungstic acid, phosphomolybdic acid, and DW were mixed at a ratio of 1:1:2. The collagenic fiber was stained by maintaining in a 2% aniline blue solution for 5 minutes. The slide was washed and subjected to a dehydration process while increasing the concentration of ethanol. The remaining ethanol was removed with xylene, and it was sealed using the VectaMount Permanent Mounting Medium.
The mark [5] stands for this setting: raloxifene treated by concentration.

Starred links: 1 amine or outer side, 2 acyl side, 3 side chain; linkers in the order of their positions; H or OH if unused. Positions of bridges follow the written chain, without caps; N, C: chain ends. Non-standard residues stand in square brackets, D forms with d. Residues, ends and D or L forms follow the SMILES beside them. Chains are numbered I, II in the order given. Actinocin(9to1) = Cc1c2oc3c(C)ccc(C(=O)[*:1])c3nc-2c(C(=O)[*:2])c(N)c1=O; NMeV = CN[C@H](C(=O)O)C(C)C; Sar = CNCC(=O)O

Consider `Cc1c2oc3c(C)ccc(C(=O)N[C@@H]4C(=O)N[C@H](C(C)C)C(=O)N5CCC[C@H]5C(=O)N(C)CC(=O)N(C)[C@@H](C(C)C)C(=O)O[C@@H]4C)c3nc-2c(C(=O)N[C@@H]2C(=O)N[C@H](C(C)C)C(=O)N3CCC[C@H]3C(=O)N(C)CC(=O)N(C)[C@@H](C(C)C)C(=O)O[C@@H]2C)c(N)c1=O` [dactinomycin] (I: T[dV]P[Sar][NMeV] / II: T[dV]P[Sar][NMeV]; ester I:1-I:C, II:1-II:C; linker I:N-II:N via Actinocin(9to1)), for which, in experiment [1], the cell proliferation entry is “decreased”.

`COC(=O)c1ccc2c(c1)NC(=O)/C2=C(\Nc1ccc(N(C)C(=O)CN2CCN(C)CC2)cc1)c1ccccc1` [nintedanib]: the “expression of the total collagen” value in the experiment with total collagen in iPSC-F is recorded as “significantly reduced”. In the experiment on ACTA2 and COL1A1, the “gene expression of ACTA2” value is “significantly reduced” and the “gene expression of COL1A1” value is “significantly reduced”.

In the case of `Cc1ccc(=O)n(-c2ccccc2)c1` [pirfenidone], the “expression of the total collagen” value with total collagen in iPSC-F is reported as “significantly reduced”. Moreover, in the experiment with ACTA2 and COL1A1, the “gene expression of ACTA2” value was “significantly reduced” and the “gene expression of COL1A1” value is recorded as “significantly reduced”.

For the compound `O=C(c1ccc(OCCN2CCCCC2)cc1)c1c(-c2ccc(O)cc2)sc2cc(O)ccc12` [raloxifene], the cell proliferation result in experiment [1] was “decreased”. Besides, in the experiment with total collagen in iPSC-F (setting [5]), the “expression of the total collagen, treated by concentration” value is “reduced as the treatment concentration of raloxifene was increased”. The “expression of α-SMA” value with α-SMA (iPSC-F of patients with systemic sclerosis) is “effectively decreased the expression of α-SMA compared to dactinomycin”. Besides, the “expression of α-SMA, treated by concentration” value in the experiment with α-SMA (setting [5]) is “reduced as the treatment concentration of raloxifene was increased”. In addition, the “wound healing, which was increased by TGF-b” value in the experiment on iPSC-F (wound healing assay in iPSC-F) is recorded as “reduced”. Besides, the “proliferation of the cells, which was increased by TGF-b” value with iPSC-F (wound healing experiment, TGF-b induced) is “reduced”. In the experiment with 3D fibroblast layer, the “thickness of the 3D fibroblast layer, which was increased by TGF-b” value is recorded as “reduced”. Moreover, in [2], the “expression of ACTA2” value was “reduced”, the “expression of COL1A1” value was “reduced” and the “expression of COL3A1” value was “reduced”. Also, the “thickness of the skin tissue” value with bleomycin mouse model [3] is “reduced”. Besides, the lung fibrosis result with bleomycin mouse model [4] is recorded as “reduced”.
